Laboratory results from ChEMBL document CHEMBL4265943, “Design and synthesis of potent dual inhibitors of JAK2 and HDAC based on fusing the pharmacophores of XL019 and vorinostat” (Eur J Med Chem, 2018).

Target: Histone deacetylase 1 (Homo sapiens, UniProt Q13547)
Experiment: Inhibition of HDAC1 (unknown origin) using Arg-His-Lys-Lys(Ac) as substrate preincubated with enzyme followed by substrate addition for 2 hrs and measured for 1.5 hrs at 15 mins time interval by fluorescence assay
Conditions: not given

Sequence of Histone deacetylase 1 (Q13547 whole entry): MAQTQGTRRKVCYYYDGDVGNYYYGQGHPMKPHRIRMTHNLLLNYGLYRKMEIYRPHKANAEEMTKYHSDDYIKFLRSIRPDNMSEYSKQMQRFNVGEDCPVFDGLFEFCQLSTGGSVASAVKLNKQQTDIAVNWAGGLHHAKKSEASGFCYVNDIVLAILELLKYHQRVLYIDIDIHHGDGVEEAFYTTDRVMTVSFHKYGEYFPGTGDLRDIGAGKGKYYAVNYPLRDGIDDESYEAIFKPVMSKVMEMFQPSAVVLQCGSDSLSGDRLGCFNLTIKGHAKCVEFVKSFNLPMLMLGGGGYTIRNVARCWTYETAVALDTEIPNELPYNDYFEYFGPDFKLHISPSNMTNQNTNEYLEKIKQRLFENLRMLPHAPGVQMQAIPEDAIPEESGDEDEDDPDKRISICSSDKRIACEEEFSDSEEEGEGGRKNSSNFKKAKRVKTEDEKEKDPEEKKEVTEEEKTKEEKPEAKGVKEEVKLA

IC50 [nM] | SMILES
89 | CC(=O)Nc1ccc(-c2ccnc(Nc3ccc(OCCCCCC(=O)NO)cc3)n2)cc1
1700 | CC(=O)Nc1ccc(-c2ccnc(Nc3ccc(OCCCCCCCC(=O)NO)cc3)n2)cc1

Target: T1, Protein deacetylase HDAC6 (Homo sapiens, UniProt Q9UBN7)
T1 sequence (Q9UBN7 whole entry): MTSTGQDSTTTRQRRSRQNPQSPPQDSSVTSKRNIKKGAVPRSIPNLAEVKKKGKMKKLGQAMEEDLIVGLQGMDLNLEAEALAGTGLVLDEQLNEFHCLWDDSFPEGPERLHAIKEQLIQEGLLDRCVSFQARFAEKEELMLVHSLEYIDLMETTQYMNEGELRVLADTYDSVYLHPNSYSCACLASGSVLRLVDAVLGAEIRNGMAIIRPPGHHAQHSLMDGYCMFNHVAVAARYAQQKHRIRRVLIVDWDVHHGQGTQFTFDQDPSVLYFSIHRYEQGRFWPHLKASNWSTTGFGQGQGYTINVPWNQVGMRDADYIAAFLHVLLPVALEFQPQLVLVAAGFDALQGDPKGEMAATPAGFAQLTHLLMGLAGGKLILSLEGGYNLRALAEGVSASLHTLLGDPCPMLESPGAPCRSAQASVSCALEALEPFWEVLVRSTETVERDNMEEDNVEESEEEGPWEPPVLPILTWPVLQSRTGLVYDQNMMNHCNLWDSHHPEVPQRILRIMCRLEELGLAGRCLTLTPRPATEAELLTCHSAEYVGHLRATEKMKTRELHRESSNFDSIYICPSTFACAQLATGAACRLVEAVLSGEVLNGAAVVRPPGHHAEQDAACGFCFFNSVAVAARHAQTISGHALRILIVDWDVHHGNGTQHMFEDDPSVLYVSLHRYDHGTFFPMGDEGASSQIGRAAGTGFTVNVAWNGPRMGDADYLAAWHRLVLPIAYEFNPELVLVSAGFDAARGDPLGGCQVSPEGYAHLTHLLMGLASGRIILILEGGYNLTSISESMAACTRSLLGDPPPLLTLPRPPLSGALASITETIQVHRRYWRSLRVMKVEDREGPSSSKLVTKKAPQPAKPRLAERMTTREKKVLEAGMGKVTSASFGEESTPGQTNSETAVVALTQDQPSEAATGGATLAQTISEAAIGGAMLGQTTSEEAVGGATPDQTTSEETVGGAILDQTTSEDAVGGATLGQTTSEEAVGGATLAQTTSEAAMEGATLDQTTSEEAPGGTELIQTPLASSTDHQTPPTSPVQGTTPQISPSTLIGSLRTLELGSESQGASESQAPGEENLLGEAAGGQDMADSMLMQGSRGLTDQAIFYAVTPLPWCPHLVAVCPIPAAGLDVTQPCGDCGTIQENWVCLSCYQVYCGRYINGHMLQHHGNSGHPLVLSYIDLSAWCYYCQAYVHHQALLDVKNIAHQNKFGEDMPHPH
Experiment: Inhibition of HDAC6 (unknown origin) using Arg-His-Lys-Lys(Ac) as substrate preincubated with enzyme followed by substrate addition for 2 hrs and measured for 1.5 hrs at 15 mins time interval by fluorescence assay
Conditions: not given

IC50 [nM] | SMILES
1.3 | CC(=O)Nc1ccc(-c2ccnc(Nc3ccc(OCCCCCC(=O)NO)cc3)n2)cc1
14 | CC(=O)Nc1ccc(-c2ccnc(Nc3ccc(OCCCCCCCC(=O)NO)cc3)n2)cc1

Tested on: HCT-116
Experiment: Antiproliferative activity against human HCT116 cells after 72 hrs by MTT assay
Assay type: functional, cell-based
Conditions: HCT-116, 72 h

IC50 [nM] | SMILES
1150 | CC(=O)Nc1ccc(-c2ccnc(Nc3ccc(OCCCCCC(=O)NO)cc3)n2)cc1
1800 | CC(=O)Nc1ccc(-c2ccnc(Nc3ccc(OCCCCCCCC(=O)NO)cc3)n2)cc1
2320 | CC(CCCCCC(=O)NO)n1cc(-c2ncnc3[nH]ccc23)cn1 (configuration not stated)

Tested on: MDA-MB-231
Experiment: Antiproliferative activity against human MDA-MB-231 cells after 72 hrs by MTT assay
Assay type: functional, cell-based
Conditions: MDA-MB-231, 72 h

IC50 [nM] | SMILES
1020 | CC(=O)Nc1ccc(-c2ccnc(Nc3ccc(OCCCCCC(=O)NO)cc3)n2)cc1
5330 | CC(=O)Nc1ccc(-c2ccnc(Nc3ccc(OCCCCCCCC(=O)NO)cc3)n2)cc1
790 | CC(CCCCCC(=O)NO)n1cc(-c2ncnc3[nH]ccc23)cn1 (configuration not stated)

Tested on: MCF7
Experiment: Antiproliferative activity against human MCF7 cells after 72 hrs by MTT assay
Assay type: functional, cell-based
Conditions: MCF7, 72 h

IC50 [nM] | SMILES
2010 | CC(=O)Nc1ccc(-c2ccnc(Nc3ccc(OCCCCCC(=O)NO)cc3)n2)cc1
5530 | CC(=O)Nc1ccc(-c2ccnc(Nc3ccc(OCCCCCCCC(=O)NO)cc3)n2)cc1
840 | CC(CCCCCC(=O)NO)n1cc(-c2ncnc3[nH]ccc23)cn1 (configuration not stated)

Tested on: PC-3
Experiment: Antiproliferative activity against human PC3 cells after 72 hrs by MTT assay
Assay type: functional, cell-based
Conditions: PC-3, 72 h

IC50 [nM] | SMILES
1510 | CC(=O)Nc1ccc(-c2ccnc(Nc3ccc(OCCCCCC(=O)NO)cc3)n2)cc1
4730 | CC(=O)Nc1ccc(-c2ccnc(Nc3ccc(OCCCCCCCC(=O)NO)cc3)n2)cc1
2410 | CC(CCCCCC(=O)NO)n1cc(-c2ncnc3[nH]ccc23)cn1 (configuration not stated)

Tested on: not listed separately
Experiment: Antiproliferative activity against human AC10 cells after 72 hrs by MTT assay
Assay type: cell-based
Conditions: not given

SMILES | CC50 at 72 h [nM]
CC(=O)Nc1ccc(-c2ccnc(Nc3ccc(OCCCCCC(=O)NO)cc3)n2)cc1 | 5740
CC(=O)Nc1ccc(-c2ccnc(Nc3ccc(OCCCCCCCC(=O)NO)cc3)n2)cc1 | 3500

Tested on: not listed separately
Experiment: Antiproliferative activity against mouse TAMH cells after 72 hrs by MTT assay
Assay type: cell-based
Conditions: not given

SMILES | CC50 at 72 h [nM]
CC(=O)Nc1ccc(-c2ccnc(Nc3ccc(OCCCCCC(=O)NO)cc3)n2)cc1 | 7390
CC(=O)Nc1ccc(-c2ccnc(Nc3ccc(OCCCCCCCC(=O)NO)cc3)n2)cc1 | 9330

Tested on: HEL 92.1.7
Experiment: cells
Assay type: functional, cell-based
Conditions: Homo sapiens, HEL 92.1.7, 72 h
Description: Antiproliferative activity against human HEL 92.1.7 cells after 72 hrs by MTT assay

IC50 [nM] | SMILES
1360 | CC(=O)Nc1ccc(-c2ccnc(Nc3ccc(OCCCCCC(=O)NO)cc3)n2)cc1
3920 | CC(=O)Nc1ccc(-c2ccnc(Nc3ccc(OCCCCCCCC(=O)NO)cc3)n2)cc1
1320 | CC(CCCCCC(=O)NO)n1cc(-c2ncnc3[nH]ccc23)cn1 (configuration not stated)

Tested on: Jurkat
Experiment: Antiproliferative activity against human Jurkat cells after 72 hrs by MTT assay
Assay type: functional, cell-based
Conditions: not given

IC50 [nM] | SMILES
1030 | CC(=O)Nc1ccc(-c2ccnc(Nc3ccc(OCCCCCC(=O)NO)cc3)n2)cc1
3480 | CC(=O)Nc1ccc(-c2ccnc(Nc3ccc(OCCCCCCCC(=O)NO)cc3)n2)cc1
470 | CC(CCCCCC(=O)NO)n1cc(-c2ncnc3[nH]ccc23)cn1 (configuration not stated)

Tested on: KMS-12-BM
Experiment: Antiproliferative activity against human KMS-12-BM cells after 72 hrs by MTT assay
Assay type: functional, cell-based
Conditions: not given

SMILES | IC50 [nM]
CC(=O)Nc1ccc(-c2ccnc(Nc3ccc(OCCCCCC(=O)NO)cc3)n2)cc1 | 70
CC(=O)Nc1ccc(-c2ccnc(Nc3ccc(OCCCCCCCC(=O)NO)cc3)n2)cc1 | 1960
CC(CCCCCC(=O)NO)n1cc(-c2ncnc3[nH]ccc23)cn1 (configuration not stated) | 2020

Tested on: not listed separately
Experiment: Antiproliferative activity against human XG6 cells after 72 hrs by MTT assay
Assay type: functional, cell-based
Conditions: XG6, 72 h

SMILES | IC50 [nM]
CC(=O)Nc1ccc(-c2ccnc(Nc3ccc(OCCCCCC(=O)NO)cc3)n2)cc1 | 1070
CC(=O)Nc1ccc(-c2ccnc(Nc3ccc(OCCCCCCCC(=O)NO)cc3)n2)cc1 | 10200
CC(CCCCCC(=O)NO)n1cc(-c2ncnc3[nH]ccc23)cn1 (configuration not stated) | 2010
